We go through 22 compounds from patent US10280159B2 (AbbVie Deutschland GmbH & Co. KG, priority 2015, dated 2019).

Holding throughout (type): cell-based
Assay [1] concerns the target T1, human S1PR5 (Homo sapiens, UniProt Q9H228).
T1 construct: host or cells: CHO-K1
The assay can be described thus: Intracellular Ca2+ release (FLIPR) agonist potency, S1P5. The settings on record: recombinant CHO-K1 cells expressing human S1PR5, aequorin, Gq/i5; Calcium 5 FLIPR; read-out: S1P5 EC50 range. The procedure:
(§1) Agonistic activity was measured using the method described below.
(§2) Intracellular Ca^2+ Release
(§3) Agonist potency and intrinsic activity was assessed by measurement of intracellular Ca^2+ release. Recombinant CHO-K1 cells (Euroscreen, Brussels, Belgium) expressing human S1PR5, S1PR1, S1PR3 or S1PR4 receptors, aequorin, and GTP binding protein Gq/i5 were cultured using a medium containing nutrient mixture F-12 Ham (Sigma-Aldrich) with 10% FBS, and 100 μg/mL gentamicin and equilibrated at 5% CO2.
(§4) Phospho-fingolimod was used as positive control. Antagonists were pre-incubated for 10 min with cells before addition of the agonist (phospho-fingolimod at EC80). Measurements were performed using a fluorometric imaging plate reader FLIPR®tetra (Molecular Devices). Agonist at the human S1P receptors were characterized by deducing EC50 (potency) values from a nonlinear fit to the measured fluorescence raw data after normalization to the reference agonist (phospho-fingolimod) curve.

Assay [2] deals with T2, human S1PR1 (Homo sapiens, UniProt P21453).
T2 construct: host or cells: CHO-K1
T2 sequence (P21453 whole entry): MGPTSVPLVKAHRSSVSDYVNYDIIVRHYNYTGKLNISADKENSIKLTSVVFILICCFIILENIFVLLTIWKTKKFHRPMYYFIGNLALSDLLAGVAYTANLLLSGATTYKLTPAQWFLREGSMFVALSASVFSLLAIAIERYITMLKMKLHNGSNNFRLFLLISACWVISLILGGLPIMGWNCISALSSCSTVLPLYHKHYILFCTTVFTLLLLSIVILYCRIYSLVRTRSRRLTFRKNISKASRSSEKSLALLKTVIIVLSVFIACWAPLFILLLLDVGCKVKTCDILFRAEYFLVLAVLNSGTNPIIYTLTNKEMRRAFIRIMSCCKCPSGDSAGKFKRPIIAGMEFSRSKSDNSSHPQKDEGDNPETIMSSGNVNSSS
The assay can be described thus: Intracellular Ca2+ release (FLIPR) agonist potency, S1P1. The settings on record: recombinant CHO-K1 cells expressing human S1PR1, aequorin, Gq/i5; Calcium 5 FLIPR; read-out: S1P1 EC50. How it is done:
as §1, §2, §3, §4

The target in assay [3] is T3, human S1PR4 (Homo sapiens, UniProt O95977).
T3 construct: host or cells: CHO-K1
T3 sequence (O95977 1-384): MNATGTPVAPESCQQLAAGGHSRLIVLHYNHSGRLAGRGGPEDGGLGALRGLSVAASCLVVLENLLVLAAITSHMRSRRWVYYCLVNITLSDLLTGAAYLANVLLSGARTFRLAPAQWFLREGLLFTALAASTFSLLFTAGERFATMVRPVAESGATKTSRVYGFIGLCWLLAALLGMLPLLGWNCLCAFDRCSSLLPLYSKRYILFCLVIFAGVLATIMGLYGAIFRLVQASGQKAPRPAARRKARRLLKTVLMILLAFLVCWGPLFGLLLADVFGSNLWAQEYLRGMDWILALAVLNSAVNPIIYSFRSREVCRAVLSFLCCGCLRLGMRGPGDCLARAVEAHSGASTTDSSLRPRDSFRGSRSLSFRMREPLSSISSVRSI
In words: Intracellular Ca2+ release (FLIPR) agonist potency, S1P4. The settings on record: recombinant CHO-K1 cells expressing human S1PR4, aequorin, Gq/i5; Calcium 5 FLIPR; read-out: S1P4 EC50. How it is done: as §1, §2, §3, §4

pEC50: −log10 of the molar value. Where a name gives a salt, the structure may show the parent alone.

T1 sequence (Q9H228 whole entry): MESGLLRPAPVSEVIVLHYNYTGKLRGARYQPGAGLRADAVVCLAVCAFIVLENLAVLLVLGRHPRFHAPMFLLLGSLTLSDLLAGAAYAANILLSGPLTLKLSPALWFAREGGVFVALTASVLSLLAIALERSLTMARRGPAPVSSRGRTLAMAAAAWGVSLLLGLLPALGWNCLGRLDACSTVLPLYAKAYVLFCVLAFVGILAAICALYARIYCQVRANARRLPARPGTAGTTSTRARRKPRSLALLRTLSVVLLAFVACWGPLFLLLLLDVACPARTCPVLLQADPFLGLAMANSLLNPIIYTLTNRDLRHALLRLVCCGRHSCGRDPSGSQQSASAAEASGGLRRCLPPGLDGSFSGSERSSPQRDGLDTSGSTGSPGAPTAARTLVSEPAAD

What is called pEC50 is the EC50 on a negative log10 scale, so that one unit is a factor of ten. As to `O=C(O)C1CN(C2COc3cc(OCCCc4cccc(F)c4)ccc3C2)C1` (stereo not drawn) [Compound 99, 1-[7-[3-(3-fluorophenyl)propoxy]chroman-3-yl]azetidine-3-carboxylic acid], the pEC50 in assay [1] was 5.00 to 6.00; in assay [2], < 6.00; in assay [3], < 6.00.

`COc1cc(F)cc(COc2ccc3c(c2)OCC(N2CC(C(=O)O)C2)C3)c1` (stereo not drawn) [Compound 100, 1-[7-[(3-fluoro-5-methoxy-phenyl)methoxy]chroman-3-yl]azetidine-3-carboxylic acid]: the pEC50 in assay [1] is 5.00 to 6.00; in assay [2], < 6.00; in assay [3] it was < 6.00.

Take `COc1cccc(F)c1COc1ccc2c(c1)OCC(N1CC(C(=O)O)C1)C2` (stereo not drawn) [Compound 101, 1-[7-[(2-fluoro-6-methoxy-phenyl)methoxy]chroman-3-yl]azetidine-3-carboxylic acid]: the pEC50 in assay [1] was 5.00 to 6.00; in assay [2], < 6.00; in assay [3], < 6.00.

In the case of `O=C(O)C1CN(C2COc3cc(OCCCCOc4cccc(F)c4)ccc3C2)C1` (stereo not drawn) [Compound 102, 1-[7-[4-(3-fluorophenoxy)butoxy]chroman-3-yl]azetidine-3-carboxylic acid], the pEC50 in assay [1] was 5.00 to 6.00; in assay [2], < 6.00; in assay [3], < 6.00.

For the compound `O=C(O)C1CN(C2COc3cc(OCc4ccc(C(F)(F)F)c(F)c4)ccc3C2)C1` (stereo not drawn) [Compound 103, 1-[7-[[3-fluoro-4-(trifluoromethyl)phenyl]methoxy]chroman-3-yl]azetidine-3-carboxylic acid], the pEC50 in assay [1] was 5.00 to 6.00; in assay [2], < 6.00; in assay [3] it was < 6.00.

With `O=C(O)C1CN(C2COc3cc(OCc4cc(OC(F)(F)F)ccc4F)ccc3C2)C1` (stereo not drawn) [Compound 104, 1-[7-[[2-fluoro-5-(trifluoromethoxy)phenyl]methoxy]chroman-3-yl]azetidine-3-carboxylic acid], the pEC50 in assay [1] was 6.00 to 7.00; in assay [2], < 6.00; in assay [3], < 6.00.

On to `Cc1cccc(COc2ccc3c(c2)OCC(N2CC(C(=O)O)C2)C3)c1F` (stereo not drawn) [Compound 105, 1-[7-[(2-fluoro-3-methyl-phenyl)methoxy]chroman-3-yl]azetidine-3-carboxylic acid], for which the pEC50 is 5.00 to 6.00 in assay [1], < 6.00 in assay [2] and < 6.00 in assay [3].

Turning to `O=C(O)C1CN(C2COc3cc(OCc4ccc(C(F)(F)F)cc4F)ccc3C2)C1` (stereo not drawn) [Compound 106, 1-[7-[[2-fluoro-4-(trifluoromethyl)phenyl]methoxy]chroman-3-yl]azetidine-3-carboxylic acid], the pEC50 in assay [1] is 5.00 to 6.00; in assay [2], < 6.00; in assay [3] it was < 6.00.

As to `CC(Oc1ccc2c(c1)OCC(N1CC(C(=O)O)C1)C2)c1ccccc1F` (stereo not drawn) [Compound 107, 1-[7-[1-(2-fluorophenyl)ethoxy]chroman-3-yl]azetidine-3-carboxylic acid], the pEC50 in assay [1] was 5.00 to 6.00; in assay [2] it was < 6.00; in assay [3], < 6.00.

Consider `O=C(O)C1CN(C2COc3cc(OCc4ccc5cc(F)ccc5n4)ccc3C2)C1` (stereo not drawn) [Compound 108, 1-[7-[(6-fluoro-2-quinolyl)methoxy]chroman-3-yl]azetidine-3-carboxylic acid], for which the pEC50 is 5.00 to 6.00 in assay [1], < 6.00 in assay [2] and < 6.00 in assay [3].

`O=C(O)C1CN(C2COc3cc(OCC4CCCCC4)ccc3C2)C1` (stereo not drawn) [Compound 109, 1-[7-(cyclohexylmethoxy)chroman-3-yl]azetidine-3-carboxylic acid]: the pEC50 in assay [1] is 6.00 to 7.00; in assay [2], < 6.00; in assay [3], < 6.00.

With `O=C(O)C1CCN(C2COc3cc(OCc4c(Cl)cccc4Cl)ccc3C2)CC1` (stereo not drawn) [Compound 110, 1-[7-[(2,6-dichlorophenyl)methoxy]chroman-3-yl]piperidine-4-carboxylic acid; Salt with 2,2,2-trifluoroacetic acid], the results for the pEC50 in assay [1], in assay [2] and in assay [3] were 7.00 to 8.00, < 6.00 and > 6.00, respectively.

For the compound `CCc1cccc(Cl)c1COc1ccc2c(c1)OCC(N1CCC(C(=O)O)CC1)C2` (stereo not drawn) [Compound 111, 1-[7-[(2-chloro-6-ethyl-phenyl)methoxy]chroman-3-yl]piperidine-4-carboxylic acid; Salt with 2,2,2-trifluoroacetic acid], the figures for the negative logarithm of the EC50 (pEC50) in assay [1], in assay [2] and in assay [3] were > 8.00, > 6.00 and > 6.00, respectively.

On to `O=C(O)C1CCN(C2COc3cc(OCc4ccccc4)ccc3C2)CC1` (stereo not drawn) [Compound 112, 1-(7-benzyloxychroman-3-yl)piperidine-4-carboxylic acid], for which the pEC50 in assay [1] was 5.00 to 6.00; in assay [2], < 6.00; in assay [3] it was > 6.00.

`O=C(O)CNC1COc2cc(OCC3CCCCC3)ccc2C1` (stereo not drawn) [Compound 113, 2-[[7-(cyclohexylmethoxy)chroman-3-yl]amino]acetic acid]: the figures for the negative-log EC50 (pEC50) in assay [1], in assay [2] and in assay [3] were 6.00 to 7.00, < 6.00 and < 6.00, respectively.

Consider `O=C(O)CNC1COc2cc(OCCc3c(Cl)cccc3Cl)ccc2C1` (stereo not drawn) [Compound 114, 2-[[7-[2-(2,6-dichlorophenyl)ethoxy]chroman-3-yl]amino]acetic acid], for which the pEC50 in assay [1] was 5.00 to 6.00; in assay [2], < 6.00; in assay [3], < 6.00.

Consider `CCc1cccc(Cl)c1COc1ccc2c(c1)OCC(NC1(CC(=O)O)CCCC1)C2` (stereo not drawn) [Compound 115, 2-(1-((7-((2-chloro-6-ethylbenzyl)oxy)chroman-3-yl)amino)cyclopentyl) acetic acid], for which the negative logarithm of the EC50 (pEC50) in assay [1] was > 8.00; in assay [2], < 6.00; in assay [3], > 6.00.

As for `CCc1cccc(Cl)c1COc1ccc2c(c1)OCC(NC1(CC(=O)O)CCC1)C2` (stereo not drawn) [Compound 116, 2-(1-((7-((2-chloro-6-ethylbenzyl)oxy)chroman-3-yl)amino)cyclobutyl)acetic acid], the pEC50 in assay [1] was > 8.00; in assay [2], < 6.00; in assay [3], > 6.00.

As for `CCc1cccc(F)c1COc1ccc2c(c1)OCC(NC1(CC(=O)O)CCCC1)C2` (stereo not drawn) [Compound 117, 2-(1-((7-((2-ethyl-6-fluorobenzyl)oxy)chroman-3-yl)amino)cyclopentyl) acetic acid], the pEC50 in assay [1] is > 8.00; in assay [2] it was < 6.00; in assay [3], > 6.00.

In the case of `CCc1cccc(F)c1COc1ccc2c(c1)OCC(NC1(CC(=O)O)CCC1)C2` (stereo not drawn) [Compound 118, 2-(1-((7-((2-ethyl-6-fluorobenzyl)oxy)chroman-3-yl)amino)cyclobutyl)acetic acid], the pEC50 in assay [1] was > 8.00; in assay [2], < 6.00; in assay [3] it was > 6.00.

Consider `O=C(O)C1(NC2COc3cc(OCc4c(Cl)cccc4Cl)ccc3C2)CCC1` (stereo not drawn) [Compound 119, 1-((7-((2,6-dichlorobenzyl)oxy)chroman-3-yl)amino)cyclobutane-1-carboxylic acid], for which the pEC50 in assay [1] is 5.00 to 6.00; in assay [2], < 6.00; in assay [3], < 6.00.

On to `CCc1cccc(Cl)c1COc1ccc2c(c1)OCC(NC1(C(=O)O)CCC1)C2` (stereo not drawn) [Compound 120, 1-((7-((2-chloro-6-ethylbenzyl)oxy)chroman-3-yl)amino)cyclobutane-1-carboxylic acid], for which the pEC50 in assay [1] is 7.00 to 8.00; in assay [2] it was > 6.00; in assay [3], > 6.00.
